Results on 7 molecules are retold here after patent publication US5534416A, “Fluorescent viability assay using cyclic-substituted unsymmetrical cyanine dyes” (Molecular Probes, Inc., priority 1993, dated 1996).

Data set [1] has as its system DNA. Briefly: Quantum yield of dye on DNA versus fluorescein. It counts as physicochemical. The conditions noted are these: for Normalized QY: QY divided by QY of thiazole orange; for QY (DNA): Table 2, Tris buffered saline pH 10, fluorescein assumed 0.92; for QY: Table 7, on DNA, fluorescein reference. The text has this:
^ Quantum yield (QY) of dye on DNA (standard solution in Tris buffere
saline adjusted to pH 10) in comparison with fluorescein, which is assume
to have a quantum yield of 0.92 under the test conditions.
(§1) Factors such as degree of fluorescence enhancement with nucleic acid binding, self quenching, molar extinction coefficient, membrane permeability, intracellular partitioning, nucleic acid binding affinity, and quantum yield contribute to the overall fluorescence of nucleic acid stains in cells. Enhanced cell fluorescence obtained with Dye I is related to unexpected properties other than quantum yield alone. Quantum yield is determined as described above (foot note to Table 2). Normalized quantum yield is determined to illustrate the fold-change in quantum yield of Dye I compared with thiazole orange, a related cell-permeant dye. The normalized fluorescence values represent the quantum yield of each dye divided by the quantum yield of thiazole orange. Fluorescence per cell is also scaled to thiazole orange values for both E. coli and S. aureus to allow direct comparison between relative (normalized) quantum yield and relative (normalized) fluorescence/cell.

Data set [2] relates to S. aureus. Briefly: Fluorescence per cell, stained bacteria (microtiter plate reader). The conditions noted are these: for Fluorescence/Cell (ex 485/em 530): S. aureus, optimal dye concentration, corrected for cell number; for Normalized Fluorescence/cell (ex 485 nm/em 530 nm), Staphylococcus aureus: scaled to thiazole orange. It is filed as cell-based, Staphylococcus aureus.
Excerpt: (§2) 1. Measured in a fluorescence microtiter plate reader with extraction and
(§3) emission filters at 485+/-10 and 530+/-12, respectively. Fluorescence dat
(§4) are corrected for cell number; but are not corrected for cell volume or
(§5) 2. Optimal dye concentrations determined as in Example 3.
(§6) 3. Suspension concentrations as used for Example 3.
as §1
(§7) A culture of E. coli is washed by centrifugation and resuspended in water to its original volume. Using Corning 96-well microtiter plates with flat bottoms, 150 μL volumes of suspension are loaded per well. A single well of sterile water is the well background standard. Using a Dynatech MR600 microplate reader equipped with a 410 nm filter, absorbance is determined for the initial volumes of suspension. The suspension is diluted seven times by serial ten-fold dilutions in water, 150 μL of suspension per well, and the absorbance measured for each dilution. Following the absorbance measurements, each dilution loaded into wells is further diluted 1:10 and plated in duplicate on nutrient growth agar. The colonies are counted and expressed as colony forming units per milliliter (cfu/mL). Using the turbidity of the dilution in the microtiter plate, the suspension is diluted to a density of about 1×10^9 cfu/mL.
(§8) The bacteria suspension, adjusted to a known density as described above, is diluted seven times by serial ten-fold dilutions in water; 150 μL of suspension per well. Three-fold serial dilutions of dye are used (30-0.04 μM); 50 μL of dye at 4× final concentration. Using Corning 96-well microtiter flat-bottom plates, a matrix is set up whereby the cell concentration decreases across the plate and the dye concentration decreases down the plate, final volume per well is 200 μL. The top row and first column are reserved for the control, sterile water. The plate is incubated at 37° C. for 30 minutes, then read in a Millipore Cytofluor™ 2350 96-well fluorescence microplate reader at a fixed excitation of 485+/-10 nm and each of three emission wavelengths, 530+/-12, 620+/-20, or 645+/-20 nm. The results determine the best dye range (30-1 μM) and the best cell concentrations (concentrated through first three ten-fold dilutions) for optimal dye loading. […] Using the four dye dilutions and the four bacterial dilutions, many bacteria and dyes can be assayed quickly. The data collected allow the determination of optimal dye and cell concentration required for maximal fluorescence intensity per cell.

Data set [3] concerns B. cereus. Described as above. The conditions noted are these: optimal dye concentration, corrected for cell number. It is filed as cell-based, Bacillus cereus. As for the experimental part: as §2, §3, §4, §5, §6, §7, §8
The test system of data set [4] is S. pyogenes. Described as above. The conditions noted are these: optimal dye concentration, corrected for cell number. It is filed as cell-based, Streptococcus pyogenes. How it is done:
as §2, §3, §4, §5, §6, §7, §8

In data set [5] the test system is nucleic acids. Briefly: Excitation/emission maxima of dyes complexed with nucleic acids. More on the design: key: wavelength in nm. It counts as physicochemical. As to conditions: Table 2; dye complexed with nucleic acids. The text has this: Dye I is lightly colored and is virtually non-fluorescent when diluted in aqueous solution according to the method of the invention. Dye I is highly membrane-permeant and labels all cells, whether live or dead. When Dye I binds with intracellular nucleic acid polymers such as DNA and RNA, the resultant dye-nucleic acid complex becomes extremely fluorescent upon illumination. The quantum yield of the preferred Dye I/DNA complex is greater than 0.02, typically greater than 0.1, preferably greater than 0.2, and more preferably greater than 0.3. Typically, Dye I combines with intracellular nucleic acids to give a green or red fluorescence. When excited at a wavelength between about 300 nm and about 500 nm, the dyes complexed with nucleic acids have an emission maximum between about 500 and about 610 nm (see Table 2). Preferably, Dye I complexed with nucleic acids has an emission maximum of between about 500 nm and about 535 nm, resulting in a true green fluorescent signal in cells of the sample where Dye I is present alone.

The test system of data set [6] is S. oranienburg. Description: Fluorescence per cell, stained bacteria (microtiter plate reader). It is filed as cell-based, Salmonella oranienburg. As to conditions: optimal dye concentration, corrected for cell number. As for the experimental part:
as §2, §3, §4, §5, §6, §7, §8

Data set [7] deals with S. sonnei. The description is as above. As to conditions: optimal dye concentration, corrected for cell number. It counts as cell-based, Shigella sonnei. How it is done: as §2, §3, §4, §5, §6, §7, §8
For data set [8], the system named is K. pneumonia. The description is as above. It counts as cell-based, Klebsiella pneumonia. As to conditions: optimal dye concentration, corrected for cell number. How it is done:
as §2, §3, §4, §5, §6, §7, §8

In data set [9] the test system is P. aeruginosa. The description is as above. It counts as cell-based, Pseudomonas aeruginosa. The conditions noted are these: optimal dye concentration, corrected for cell number. As for the experimental part:
as §2, §3, §4, §5, §6, §7, §8

Data set [10] deals with M. luteus. The description is as above. The conditions noted are these: optimal dye concentration, corrected for cell number. It counts as cell-based, Micrococcus luteus. How it is done: as §2, §3, §4, §5, §6, §7, §8
Data set [11] concerns E. coli. Described as above. It is filed as cell-based, Escherichia coli. As to conditions: for Fluorescence/Cell (ex 485/em 530): E. coli, optimal dye concentration, corrected for cell number; for Normalized Fluorescence/cell (ex 485 nm/em 530 nm), Escherichia coli: scaled to thiazole orange.
Excerpt: as §2, §3, §4, §5, §6, §1, §7, §8

For the molecule `COC1=CC(=Cc2sc3ccccc3[n+]2C)c2ccccc2N1c1ccccc1` [compound 628], in [1], the “Normalized QY” value was 2.2. In data set [1], the “QY (DNA)” value amounted to 0.40. Also, the QY in data set [1] is recorded as 0.40. Moreover, the “Fluorescence/Cell (ex 485/em 530)” value in data set [2] was 34; in [3] it was 613; in data set [4], 0.04; in data set [6], 19; in [7] it was 16; in data set [8], 20. Also, the “Fluorescence/Cell (ex 485/em 530)” value was 14 in data set [9], 149 in data set [10] and 28 in [11]. Moreover, in data set [2], the “Normalized Fluorescence/cell (ex 485 nm/em 530 nm), Staphylococcus aureus” value is reported as 10.6. In [5], this molecule returned an EM max of 506. The EX max in data set [5] was 488. Further, in [11], the “Normalized Fluorescence/cell (ex 485 nm/em 530 nm), Escherichia coli” value (“Normalized Fluorescence/cell … Escherichia coli” below) was 14.
Take `CCCCC1=CC(=Cc2oc3ccccc3[n+]2C)c2ccccc2N1c1ccccc1` [compound 624]: the “Normalized QY” value in data set [1] worked out at 3.2. The “QY (DNA)” value in [1] came to 0.58. This molecule also yielded a QY in [1] of 0.58. Moreover, the “Fluorescence/Cell (ex 485/em 530)” value in data set [2] was found to be 44; in data set [3] it was 709; in data set [4], 0.05; in data set [6], 15; in data set [7], 11; in [8] it was 17. Moreover, the “Fluorescence/Cell (ex 485/em 530)” value is 14 in data set [9], 162 in [10] and 24 in data set [11]. Also, the “Normalized Fluorescence/cell (ex 485 nm/em 530 nm), Staphylococcus aureus” value in data set [2] was 13.8. In addition, the EM max in [5] is 501. For the same molecule, in [5], the EX max stood at 480. Moreover, the “Normalized Fluorescence/cell … Escherichia coli” value in [11] came out at 12.
With `CCN(CC)C1=CC(=Cc2sc3ccccc3[n+]2C)c2ccccc2N1c1ccccc1` [compound 619], the “Normalized QY” value in [1] is 3.4. Further, the “QY (DNA)” value in [1] is 0.62. Also, the QY in data set [1] came to 0.62. The “Fluorescence/Cell (ex 485/em 530)” value in [2] turned out to be 47; in [3], 827; in data set [4], 0.06; in [6], 18; in [7] it was 13; in data set [8], 12. In addition, the “Fluorescence/Cell (ex 485/em 530)” value amounted to 16 in data set [9], 149 in data set [10] and 26 in [11]. Moreover, the “Normalized Fluorescence/cell (ex 485 nm/em 530 nm), Staphylococcus aureus” value in data set [2] came to 14.7. The molecule further showed an EM max in data set [5] of 517. The EX max in data set [5] turned out to be 488. In addition, in [11], the “Normalized Fluorescence/cell … Escherichia coli” value turned out to be 13.
In the case of `CC1=CC(=Cc2sc3ccccc3[n+]2C)c2ccccc2N1c1ccccc1` [compound 613], the “Normalized QY” value in data set [1] was found to be 1.8. Besides, in [1], the “QY (DNA)” value is 0.33. This molecule gave a QY in data set [1] of 0.33. Further, the “Fluorescence/Cell (ex 485/em 530)” value was 10 in data set [2]; 242 in data set [3]; 0.02 in [4]; 10 in data set [6]; 6 in data set [7]; 10 in data set [8]. The “Fluorescence/Cell (ex 485/em 530)” value in data set [9] is 6; in [10], 75; in [11], 12. Also, in data set [2], the “Normalized Fluorescence/cell (ex 485 nm/em 530 nm), Staphylococcus aureus” value is recorded as 3.1. In data set [5], this molecule showed an EM max of 523. This molecule also yielded an EX max in data set [5] of 506. Besides, in data set [11], the “Normalized Fluorescence/cell … Escherichia coli” value is given as 6.
With `CCCCCCN1C=CC(=Cc2sc3ccccc3[n+]2C)c2ccccc21` [compound 634], in data set [1], the “Normalized QY” value was 1.0. For the same molecule, in data set [1], the “QY (DNA)” value was 0.18. In addition, in data set [1], the QY is reported as 0.18. In addition, the “Fluorescence/Cell (ex 485/em 530)” value was 15 in data set [2]; 154 in data set [3]; 0.03 in data set [4]; 5 in [6]; 4 in data set [7]; 4 in data set [8]. Also, the “Fluorescence/Cell (ex 485/em 530)” value in data set [9] stood at 3; in [10], 58; in [11] it was 4. Moreover, the “Normalized Fluorescence/cell (ex 485 nm/em 530 nm), Staphylococcus aureus” value in [2] was determined as 4.7. Also, the EM max in [5] is 530. In data set [5], this molecule returned an EX max of 510. Besides, in [11], the “Normalized Fluorescence/cell … Escherichia coli” value was found to be 2.
Consider `C[n+]1c(C=C2C=C(Cl)N(c3ccccc3)c3ccccc32)sc2ccccc21` [compound 591], for which the “Normalized QY” value in data set [1] was 0.5. Besides, in data set [1], the “QY (DNA)” value was found to be 0.09. The QY in data set [1] worked out at 0.09. Also, the “Fluorescence/Cell (ex 485/em 530)” value is 3 in data set [2]; 58 in data set [3]; less than 0.01 in [4]; 2 in [6]; 1 in [7]; 2 in data set [8]. Moreover, the “Fluorescence/Cell (ex 485/em 530)” value in [9] is reported as 1; in data set [10], 375; in data set [11], 2. Also, the “Normalized Fluorescence/cell (ex 485 nm/em 530 nm), Staphylococcus aureus” value in data set [2] stood at 0.9. The same molecule displayed an EM max in [5] of 532. In data set [5], this molecule came in with an EX max of 509. Besides, the “Normalized Fluorescence/cell … Escherichia coli” value in [11] is reported as 1.
With `C[n+]1c(C=C2C=CN(c3ccccc3)c3ccccc32)sc2ccccc21` [dye 63], the “Normalized QY” value in data set [1] was 1.3. For the same molecule, the “QY (DNA)” value in data set [1] was 0.24. The QY in data set [1] turned out to be 0.24. For the same molecule, the “Fluorescence/Cell (ex 485/em 530)” value worked out at 5 in [2]; 93 in data set [3]; 0.01 in data set [4]; 4 in [6]; 3 in [7]; 5 in data set [8]. The “Fluorescence/Cell (ex 485/em 530)” value in [9] worked out at 3; in data set [10], 33; in data set [11] it was 6. The “Normalized Fluorescence/cell (ex 485 nm/em 530 nm), Staphylococcus aureus” value in data set [2] is recorded as 1.6. The EM max in data set [5] came to 531. Moreover, in data set [5], the EX max was 514. Also, the “Normalized Fluorescence/cell … Escherichia coli” value in data set [11] is recorded as 3.
